Reference: patent US10662187B2, “Bruton's tyrosine kinase inhibitors” (Zibo Biopolar Changsheng Pharmaceutical Co. Ltd., priority 2016, dated 2020)

What follows are compounds tested against BTK (Homo sapiens (Human), UniProt Q06187) (assay: Btk kinase assay (HTRF)). Details: [ATP]=80 μM, BTK=3.4 nM; read-out: BTK Inhibition.
Assay type: biochemical
Protocol: Btk Kinase Assay and Other Kinases Assay Btk kinase activity was determined using a homogenous time resolved fluorescence (HTRF) methodology. Measurements were performed in a reaction volume of 15 μL using 384-well assay plates. Kinase enzyme, inhibitor, ATP and 1 μM peptide substrate were incubated in a reaction buffer compose of Hepes 50 mM (pH7.0), NaN3 0.02%, BSA 0.01%, Orthocanadate 0.1 mM. […] For each compound, enzyme activity as measured at various concentrations of compound, Negative control reactions were performed in the absence of inhibitor in two replicates and eight no enzyme controls were used to determine baseline fluorescence levels.

Sequence of BTK (Q06187 whole entry, species assumed): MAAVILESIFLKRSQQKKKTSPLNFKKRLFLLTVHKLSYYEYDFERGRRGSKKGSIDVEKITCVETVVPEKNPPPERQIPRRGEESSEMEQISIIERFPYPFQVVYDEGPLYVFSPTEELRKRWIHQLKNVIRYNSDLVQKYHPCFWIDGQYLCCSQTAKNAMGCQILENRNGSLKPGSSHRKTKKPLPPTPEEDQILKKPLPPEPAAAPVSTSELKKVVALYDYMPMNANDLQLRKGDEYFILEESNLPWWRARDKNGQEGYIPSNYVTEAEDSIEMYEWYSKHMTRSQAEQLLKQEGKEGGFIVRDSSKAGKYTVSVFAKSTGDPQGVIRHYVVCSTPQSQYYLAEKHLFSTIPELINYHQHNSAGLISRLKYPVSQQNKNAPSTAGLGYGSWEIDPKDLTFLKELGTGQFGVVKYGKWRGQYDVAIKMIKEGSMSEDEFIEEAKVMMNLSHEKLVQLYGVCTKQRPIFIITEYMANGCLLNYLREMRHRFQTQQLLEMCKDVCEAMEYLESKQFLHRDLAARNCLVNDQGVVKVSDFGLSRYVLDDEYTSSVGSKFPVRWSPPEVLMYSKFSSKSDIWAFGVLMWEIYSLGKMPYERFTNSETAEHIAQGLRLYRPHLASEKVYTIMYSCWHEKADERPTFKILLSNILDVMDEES

C=CC(=O)N1CC[C@@H](n2nc(-c3ccc(Oc4cccc(OC)c4C)cc3)c3cnccc32)C1 [Compound 59, (R)-1-(3-(3-(4-(3-methoxy-2-methylphenoxy)phenyl)-1H-pyrazolo[4,3-c]pyridin-1-yl)pyrrolidin-1-yl)prop-2-en-1-one] and C=CC(=O)N1CCC[C@@H](n2nc(-c3ccc(Oc4cccc(OC)c4C)cc3)c3cnccc32)C1 [Compound 57, (R)-1-(3-(3-(4-(3-methoxy-2-methylphenoxy)phenyl)-1H-pyrazolo[4,3-c]pyridin-1-yl)piperidin-1-yl)prop-2-en-1-one] fall in the same range of IC50: 10 to 100 nM for the first, 10 to 100 nM for the second.

First: C=CC(=O)N1CC[C@@H](n2nc(-c3ccc(Oc4cccc(Cl)c4C)cc3)c3cnccc32)C1 [Compound 60, (R)-1-(3-(3-(4-(3-chloro-2-methylphenoxy)phenyl)-1H-pyrazolo[4,3-c]pyridin-1-yl)pyrrolidin-1-yl)prop-2-en-1-one]
Second: C=CC(=O)N1CC[C@@H](n2nc(-c3ccc(Oc4cccc(C)c4F)cc3)c3cnccc32)C1 [Compound 47, (R)-1-(3-(3-(4-(2-fluoro-3-methylphenoxy)phenyl)-1H-pyrazolo[4,3-c]pyridin-1-yl)pyrrolidin-1-yl)prop-2-en-1-one]
The IC50 of the first is higher: 10 to 100 nM for the first, under 10 nM for the second. The second is the more potent here.

Compared with C=CC(=O)N1CC[C@@H](n2nc(-c3ccc(Oc4cccc(OC)c4F)cc3)c3c2CCN(C(C)=O)C3)C1 [Compound 45, (R)-1-(3-(5-acetyl-3-(4-(2-fluoro-3-methoxyphenoxy)phenyl)-4,5,6,7-tetrahydro-1H-pyrazolo[4,3-c]pyridin-1-yl)pyrrolidin-1-yl)prop-2-en-1-one], C=CC(=O)N1CC[C@@H](n2nc(-c3ccc(Oc4cccc(OC)c4F)cc3)c3cncc(C)c32)C1 [Compound 5, (R)-1-(3-(3-(4-(2-fluoro-3-methoxyphenoxy)phenyl)-7-methyl-1H-pyrazolo [4,3-c]pyridin-1-yl)pyrrolidin-1-yl) prop-2-en-1-one] is lower in IC50: 1000 to 10000 nM for the first, under 10 nM for the second.

First: C=CC(=O)N1CCC[C@@H](n2nc(-c3ccc(Oc4cccc(C)c4F)cc3)c3cnccc32)C1 [Compound 48, (R)-1-(3-(3-(4-(2-fluoro-3-methylphenoxy)phenyl)-1H-pyrazolo[4,3-c]pyridin-1-yl)piperidin-1-yl)prop-2-en-1-one]
Second: C=CC(=O)N1CCC[C@H](n2nc(-c3ccc(Oc4cccc(Cl)c4Cl)cc3)c3cnccc32)C1 [Compound 44, (S)-1-(3-(3-(4-(2,3-dichlorophenoxy)phenyl)-1H-pyrazolo[4,3-c]pyridin-1-yl)piperidin-1-yl)prop-2-en-1-one]
The IC50 of the first is higher: 10 to 100 nM for the first, under 10 nM for the second. The second is the more potent here.

First: C=CC(=O)N1CCC[C@@H](n2nc(-c3ccc(Oc4cccc(OC)c4F)cc3)c3cncc(C(F)F)c32)C1 [Compound 72, (R)-1-(3-(7-(difluoromethyl)-3-(4-(2-fluoro-3-methoxyphenoxy)phenyl)-1H-pyrazolo[4,3-c]pyridin-1-yl)piperidin-1-yl)prop-2-en-1-one]
Second: C=CC(=O)N1CCC[C@@H](n2nc(-c3ccc(Oc4cccc(OC)c4F)cc3)c3cncc(O)c32)C1 [Compound 82, (R)-1-(3-(3-(4-(2-fluoro-3-methoxyphenoxy)phenyl)-7-hydroxy-1H-pyrazolo[4,3-c]pyridin-1-yl)piperidin-1-yl)prop-2-en-1-one]
The IC50 of the first is higher: 10 to 100 nM for the first, under 10 nM for the second. The second is the more potent here.

C=CC(=O)N1CCC[C@@H](n2nc(-c3ccc(Oc4cccc(Cl)c4)cc3)c3cnccc32)C1 [Compound 9, (R)-1-(3-(3-(4-(3-chlorophenoxy)phenyl)-1H-pyrazolo[4,3-c]pyridin-1-yl)piperidin-1-yl)prop-2-en-1-one] and C=CC(=O)N1CCC[C@H](n2nc(-c3ccc(Oc4ccccc4)c(Cl)c3)c3cnccc32)C1 [Compound 35, (S)-1-(3-(3-(3-chloro-4-phenoxyphenyl)-1H-pyrazolo[4,3-c]pyridin-1-yl)piperidin-1-yl)prop-2-en-1-one] fall in the same range of IC50: 10 to 100 nM for the first, 10 to 100 nM for the second.

First: C=CC(=O)N1CC2(CC(n3nc(-c4ccc(Oc5cccc(OC)c5F)cc4)c4cnccc43)C2)C1 [Compound 26, 1-(6-(3-(4-(2-fluoro-3-methoxyphenoxy)phenyl)-1H-pyrazolo[4,3-c]pyridin-1-yl)-2-azaspiro[3.3]heptan-2-yl)prop-2-en-1-one]
Second: C=CC(=O)N1CC[C@@H](n2nc(-c3ccc(Oc4cccc(F)c4OC)cc3)c3cnccc32)C1 [Compound 49, (R)-1-(3-(3-(4-(3-fluoro-2-methoxyphenoxy)phenyl)-1H-pyrazolo[4,3-c]pyridin-1-yl)pyrrolidin-1-yl)prop-2-en-1-one]
The IC50 of the first is lower: under 10 nM for the first, 10 to 100 nM for the second.

Compared with C=CC(=O)N1CCC[C@@H](n2nc(-c3ccc(NC(=O)c4cccc(C(F)(F)F)c4)cc3)c3cnccc32)C1 [Compound 117, (R)-N-(4-(1-(1-acryloylpiperidin-3-yl)-1H-pyrazolo[4,3-c]pyridin-3-yl)phenyl)-3-(trifluoromethyl)benzamide], C=CC(=O)N1CCC[C@@H](n2nc(-c3ccc(C(=O)NCc4cccc(OC)c4)cc3)c3cnccc32)C1 [Compound 104, (R)-4-(1-(1-acryloylpiperidin-3-yl)-1H-pyrazolo[4,3-c]pyridin-3-yl)-N-(3-methoxybenzyl)benzamide] is higher in IC50: 10 to 100 nM for the first, 100 to 1000 nM for the second.

C=CC(=O)N1CC[C@@H](n2nc3ccncc3c2-c2ccc(Oc3cccc(F)c3Cl)cc2)C1 [Compound 38, (R)-1-(3-(3-(4-(2-chloro-3-fluorophenoxy)phenyl)-2H-pyrazolo[4,3-c]pyridin-2-yl)pyrrolidin-1-yl)prop-2-en-1-one] and C=CC(=O)N1CCC[C@@H](n2nc3ccncc3c2-c2ccc(Oc3cccc(F)c3Cl)cc2)C1 [Compound 39, (R)-1-(3-(3-(4-(2-chloro-3-fluorophenoxy)phenyl)-2H-pyrazolo[4,3-c]pyridin-2-yl)piperidin-1-yl)prop-2-en-1-one] fall in the same range of IC50: 10 to 100 nM for the first, 10 to 100 nM for the second.

C=CC(=O)N1CC[C@@H](n2nc(-c3ccc(Oc4cccc5ccccc45)cc3)c3cnccc32)C1 [Compound 7, (R)-1-(3-(3-(4-(naphthalen-1-yloxy)phenyl)-1H-pyrazolo[4,3-c]pyridin-1-yl)pyrrolidin-1-yl)prop-2-en-1-one] and C=CC(=O)N1CC[C@@H](n2nc(-c3ccc(Oc4cccc5c4CCC5)cc3)c3cnccc32)C1 [Compound 31, (R)-1-(3-(3-(4-((2,3-dihydro-1H-inden-4-yl)oxy)phenyl)-1H-pyrazolo[4,3-c]pyridin-1-yl)pyrrolidin-1-yl)prop-2-en-1-one] fall in the same range of IC50: 10 to 100 nM for the first, 10 to 100 nM for the second.

Compared with C=CC(=O)Nc1cccc(-n2nc(-c3ccc(Oc4ccccc4)cc3)c3cnccc32)c1 [Compound 22, N-(3-(3-(4-phenoxyphenyl)-1H-pyrazolo[4,3-c]pyridin-1-yl)phenyl)acrylamide], C=CC(=O)N1CC[C@@H](n2nc(-c3ccc(Oc4ccccc4)cc3)c3cncc(F)c32)C1 [Compound 66] is lower in IC50: 10 to 100 nM for the first, under 10 nM for the second.

C=CC(=O)N1CCC[C@@H](n2nc(-c3ccc(Oc4cccc(OC)c4F)cc3)c3cncc(OCCN)c32)C1 [Compound 87, (R)-1-(3-(7-(2-aminoethoxy)-3-(4-(2-fluoro-3-methoxyphenoxy)phenyl)-1H-pyrazolo[4,3-c]pyridin-1-yl)piperidin-1-yl)prop-2-en-1-one] and CC#CC(=O)N1CCC[C@@H](n2nc(-c3ccc(Oc4cccc(OC)c4F)cc3)c3cncc(OCCN(C)C)c32)C1 [Compound 94, (R)-1-(3-(7-(2-(dimethylamino)ethoxy)-3-(4-(2-fluoro-3-methoxyphenoxy)phenyl)-1H-pyrazolo[4,3-c]pyridin-1-yl)piperidin-1-yl)but-2-yn-1-one] fall in the same range of IC50: 10 to 100 nM for the first, 10 to 100 nM for the second.

COc1cccc(Oc2ccc(-c3nn([C@@H]4CCCN(C(=O)C(N)=O)C4)c4c(OC)cncc34)cc2)c1F [Compound 120, (R)-2-(3-(3-(4-(2-fluoro-3-methoxyphenoxy)phenyl)-7-methoxy-1H-pyrazolo[4,3-c]pyridin-1-yl)piperidin-1-yl)-2-oxoacetamide] and COc1cccc(Oc2ccc(-c3nn([C@@H]4CCCN(C(=O)/C(C#N)=C/C(C)(C)C)C4)c4c(OC)cncc34)cc2)c1F [Compound 90, (R,E)-2-(3-(3-(4-(2-fluoro-3-methoxyphenoxy)phenyl)-7-methoxy-1H-pyrazolo[4,3-c]pyridin-1-yl)piperidine-1-carbonyl)-4,4-dimethylpent-2-enenitrile] fall in the same range of IC50: 10 to 100 nM for the first, 10 to 100 nM for the second.

CC#CC(=O)N1CCC[C@@H](n2nc(-c3ccc(Oc4cccc(OC)c4Cl)cc3)c3cnccc32)C1 [Compound 25, (R)-1-(3-(3-(4-(2-chloro-3-methoxyphenoxy)phenyl)-1H-pyrazolo[4,3-c]pyridin-1-yl)piperidin-1-yl)but-2-yn-1-one] and CC#CC(=O)N1CCC[C@@H](n2nc(-c3ccc(C(=O)Nc4ccccn4)cc3)c3cnccc32)C1 [Compound 105, (R)-4-(1-(1-(but-2-ynoyl)piperidin-3-yl)-1H-pyrazolo [4,3-c]pyridin-3-yl)-N-(pyridin-2-yl)benzamide] fall in the same range of IC50: 100 to 1000 nM for the first, 100 to 1000 nM for the second.

C=CC(=O)N1CCC[C@@H](n2nc(-c3ccc(OCc4ccccc4F)cc3)c3cnccc32)C1 [Compound 101, (R)-1-(3-(3-(4-((2-fluorobenzyl)oxy)phenyl)-1H-pyrazolo[4,3-c]pyridin-1-yl)piperidin-1-yl)prop-2-en-1-one] and C=CC(=O)N1CCC[C@H](n2nc(-c3ccc(C(=C)c4ccccc4)cc3)c3cnccc32)C1 [Compound 95, (S)-1-(3-(3-(4-(1-phenylvinyl)phenyl)-1H-pyrazolo [4,3-c]pyridin-1-yl)piperidin-1-yl)prop-2-en-1-one] fall in the same range of IC50: 10 to 100 nM for the first, 10 to 100 nM for the second.

C=CC(=O)N1CC[C@@H](n2nc(-c3ccc(Oc4ccccc4)cc3)c3c(N)cccc32)C1 [Compound 54, (R)-1-(3-(4-amino-3-(4-phenoxyphenyl)-1H-indazol-1-yl)pyrrolidin-1-yl)prop-2-en-1-one] and C=CC(=O)N1CCC[C@@H](n2nc(-c3ccc(Oc4ccccc4)cc3)c3c(N)cccc32)C1 [Compound 55, (R)-1-(3-(4-amino-3-(4-phenoxyphenyl)-1H-indazol-1-yl)piperidin-1-yl)prop-2-en-1-one] fall in the same range of IC50: 10 to 100 nM for the first, 10 to 100 nM for the second.
